Source: US9988626B2, “Neurocalcin delta inhibitors and therapeutic and non-therapeutic uses thereof” (Universität Zu Köln, priority 2013, dated 2018)
“Also recorded” adds a separate entry of the source.

Tests used:
Type in all cases: in vivo
zebrafish embryos = test: Zebrafish motor axon phenotype (znp-1 staining) after morpholino or mRNA injection; conditions: 34 hpf zebrafish, smn MO 4 ng, ncald MO 2 ng
Protocol: Zebrafish were dechorionated and fixed in 4% PFA-PBS 34 hours after fertilization. Collagenase digest was performed to permeabilize the larvae for the following antibody staining. In brief, fish were stained at 4° C. over night in 500 μl PBS-T/10% FCS containing znp-1 antibody (1:300, Hybridoma Bank). After all-day washing in PBS-T/1% FCS/1% BSA (changing solution every hour) fish were stained in PBS-T/1% DMSO/10% FCS containing secondary donkey anti-mouse antibody labelled with Alexafluor 488 (1:200, Invitrogen). After repeated washing, fish were stored in 80% glycerol/20% PBS in the dark at 4° C. Microscopic analysis of fish was performed in 80% glycerol on micro slides using a fluorescence microscope (Axioskop 2, Zeiss). The length of each of the first ten motoraxons behind the yolk was analyzed and evaluated. For NSC34 cell staining cells were fixed in 4% PFA for 15 min at RT. Following fixation, cells were rinsed 1× in PBS for 5 min. After another washing step with PBS, cells were permeabilized in 0.2% Triton X in PBS for 5 min. […]
The used antisense Morpholino (MO) was designed against the translational start codon of the ncald gene (Gene Tools, LLC): 5′-[…]-3′ (SEQ ID NO: 2). […] Six hours after injection embryos were sorted according to homogeneity of the rhodamine fluorescence signal reflecting the equal distribution of the injected MO solution. […]

zebrafish larvae [1] = test: TEM analysis of synaptic cleft width of zebrafish NMJs
Protocol: Whole zebrafish larvae were fixed in 4% PFA for 30 min and postfixed in 0.6% glutaraldehyde for 24 h. Larvae were embedded in Epoxy resin (Plano) and cross sections were performed according to previously described and adapted TEM protocol (Voigt et al. 2010). Thickness of semi-thin and ultra-thin sections was 0.5 μm and 0.1 μm, respectively. Image acquisition was performed as described in the supplement. Image acquisition was performed using the TEM CM10 (Philips) microscope with the Orius SC200W 1 Gatan camera and Digital Micrograph software.
48 hpf zebrafish larvae were fixed in 4% PFA for 30 min and postfixed in 0.6% glutaraldehyde for another day. Gold-labeled secondary antibodies were used for co-localization studies of Ncald and Clathrin. Image acquisition of ultra-thin sections with a thickness of […] was performed using the TEM CM10 (Philips) microscope with the Orius SC200W 1 Gatan camera and the Digital Micrograph software.
48 hpf zebrafish larvae were fixed in 4% PFA for […] and postfixed in 0.6% glutaraldehyde for another day. Samples were then prepared and embedded in resin as previously described. The thickness of semi-thin and ultra-thin sections was […], respectively. For immunogold stainings, in brie pre-stained sections were blocked and afterwards incubated with primary antibodies (anti-clathrin, 1:50, anti-NCALD, 1:50) and washed in PBS; after that sections were stained with gold-labelled secondary antibodies (donkey anti-mouse 6 nm gold, 1:100; goat anti-rabbit 20 nm gold 1:100; Abeam). Image acquisition was performed using the TEM CM10 (Philips) microscope with the Orius SC200W 1 Gatan camera and the Digital Micrograph software.

zebrafish larvae [2] = test: High-speed tracking of zebrafish swimming velocity after electric stimulation; conditions: 48 hpf zebrafish, n=30 per treatment
Protocol: To analyse the swimming behaviour of zebrafish morphants, high-speed imaging was performed. In brief 30 zebrafish larvae, all treated with each respective morpholino, were placed in a 10 cm petri dish containing fish embryo medium. To trigger a swimming response, fish were stimulated with an electrical impulse (60 V; delay: 60 ms, duration: 4 ms, frequency: 6 pps (SD9 Stimulator)). Swimming behaviour was recorded with 120 frames per second using a high-speed camera (FC-100, Casio). Quality of the high-speed video was optimized for analysis (Adobe) and afterwards swimming velocity and distance was analysed using LoliTrack software (Loligo Systems).

[3] = MO-injected 48 hpf fish, N=3, n=5 (FIG. 17E)

Question: How did the “Motor axon phenotype (truncation, branching)” value (zebrafish embryos) turn out when “smn MO: previously published morpholino knocking down zebrafish smn, CGACATCTTCTGCACCATTGGC (all phosphorodiamidate morpholino (PMO))” was run?
Answer: high numbers of severely truncated motor neuron axons; also recorded: massive motor axon-specific outgrowth defects

Question: What about the “Width of synaptic cleft / NMJ maturation” value (zebrafish larvae [1]; Example 1, FIG. 8, 34 hpf zebrafish larvae) of the same substance?
Answer: significant reduction of the width of the synaptic cleft

Question: And the “Width of synaptic cleft, mean” value (zebrafish larvae [1]; [3])?
Answer: 30.26 nm

Question: What about the “Width of synaptic cleft, median” value (zebrafish larvae [1]; [3]) of the same substance?
Answer: 23.51 nm

Question: What about the “Swimming velocity after electrical stimulation” value (zebrafish larvae [2]) of the same substance?
Answer: significantly reduced velocity
